Reference: patent US8802597B2, “Herbicidal pyrimidines” (E I du Pont de Nemours and Company, priority 2003, dated 2014)
Where two headings read alike, the source gives them in different places.

Key:
Assay in all cases: Test C pre/postemergence
Type in all cases: in vivo
[1] = tested on: lambsquarters (Chenopodium album); details: Chenopodium album, pre-emergence, Preemergence, scale 0 to 100, read-out: Plant response rating, Lambsquarters
In short: (§1)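 We sprayed seeded pots preemergence and 2–18 cm seedlings postemergence with test chemicals in a non-phytotoxic solvent mixture including surfactant. Greenhouse plants were visually compared with untreated controls at 12 to 14 days and scored 0 (no effect) to 100 (complete control).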

[2] = tested on: morningglory (Ipomoea coccinea); details: Ipomoea; for pest or weed control at 62 g/ha: 62 g ai/ha; for pest or weed control at 125 g/ha: 125 g ai/ha; for pest or weed control at 250 g/ha: 250 g ai/ha; for pest or weed control at 500 g/ha: 500 g ai/ha
In short: as §1

soybean (Glycine max) = details: Glycine max; for plant injury at 62 g/ha: 62 g ai/ha; for plant injury at 125 g/ha: 125 g ai/ha; for plant injury at 250 g/ha: 250 g ai/ha; for plant injury at 500 g/ha: 500 g ai/ha
In short: as §1

[3] = tested on: common ragweed (Ambrosia elatior); details: Ambrosia artemisiifolia; for pest or weed control at 62 g/ha: 62 g ai/ha; for pest or weed control at 125 g/ha: 125 g ai/ha; for pest or weed control at 250 g/ha: 250 g ai/ha; for pest or weed control at 500 g/ha: 500 g ai/ha
In short: as §1

[4] = tested on: eastern black nightshade (Solanum ptycanthum); details: Solanum, pre-emergence, Preemergence, read-out: Plant response rating, Nightshade
In short: as §1

[5] = tested on: woolly cupgrass (Eriochloa villosa); details: Eriochloa villosa; for pest or weed control at 62 g/ha: 62 g ai/ha; for pest or weed control at 125 g/ha: 125 g ai/ha; for pest or weed control at 250 g/ha: 250 g ai/ha; for pest or weed control at 500 g/ha: 500 g ai/ha
In short: as §1

[6] = tested on: velvetleaf (Abutilon theophrasti); details: Abutilon theophrasti; for pest or weed control at 62 g/ha: 62 g ai/ha; for pest or weed control at 125 g/ha: 125 g ai/ha; for pest or weed control at 250 g/ha: 250 g ai/ha; for pest or weed control at 500 g/ha: 500 g ai/ha
In short: as §1

[7] = post-emergence, Postemergence, scale 0 to 100 (0 no effect, 100 complete control), read-out: Morningglory plant response rating
[8] = post-emergence, Postemergence, scale 0 to 100, read-out: Plant response rating, Morningglory
[9] = pre-emergence, Preemergence, scale 0 to 100, read-out: Plant response rating, Morningglory
[10] = post-emergence, Postemergence, scale 0 to 100 (0 no effect, 100 complete control), read-out: Soybean plant response rating
[11] = post-emergence, Postemergence, scale 0 to 100, read-out: Plant response rating, Soybean
[12] = pre-emergence, Preemergence, scale 0 to 100, read-out: Plant response rating, Soybean
[13] = post-emergence, Postemergence, scale 0 to 100 (0 no effect, 100 complete control), read-out: Ragweed plant response rating
[14] = post-emergence, Postemergence, scale 0 to 100, read-out: Plant response rating, Ragweed
[15] = pre-emergence, Preemergence, scale 0 to 100, read-out: Plant response rating, Ragweed
[16] = post-emergence, Postemergence, scale 0 to 100 (0 no effect, 100 complete control), read-out: Cupgrass, Woolly plant response rating
[17] = post-emergence, Postemergence, scale 0 to 100, read-out: Plant response rating, Cupgrass, Woolly
[18] = pre-emergence, Preemergence, scale 0 to 100, read-out: Plant response rating, Cupgrass, Woolly
[19] = post-emergence, Postemergence, scale 0 to 100 (0 no effect, 100 complete control), read-out: Velvetleaf plant response rating
[20] = post-emergence, Postemergence, scale 0 to 100, read-out: Plant response rating, Velvetleaf
[21] = pre-emergence, Preemergence, scale 0 to 100, read-out: Plant response rating, Velvetleaf

Nc1nc(C2CC2)nc(C(=O)OCc2ccccc2)c1Br [Compound 22, phenylmethyl 6-amino-5-bromo-2-cyclopropyl-4-pyrimidinecarboxylate] gave a pest or weed control at 250 g/ha ([1]; 250 g ai/ha) of 100%, a pest or weed control at 500 g/ha ([1]; 500 g ai/ha) of 100% and a pest or weed control at 62 g/ha [2, 7] of 90%. For the same compound, the pest or weed control at 125 g/ha [2, 7] was 90%, the pest or weed control at 250 g/ha [2, 8] was 95% and the pest or weed control at 500 g/ha [2, 8] was 100%. For the same compound, the pest or weed control at 62 g/ha ([2]; pre-emergence, Preemergence, scale 0 to 100, 0 no effect, 100 complete control, read-out: Plant response rating, Morningglory) was 100%, the pest or weed control at 125 g/ha [2, 9] was 100% and the pest or weed control at 250 g/ha [2, 9] was 100%. It also gave a pest or weed control at 500 g/ha [2, 9] of 100%, a plant injury at 62 g/ha (soybean (Glycine max); [10]) of 95% and a plant injury at 125 g/ha (soybean (Glycine max); [10]) of 100%. For the same compound, the plant injury at 250 g/ha (soybean (Glycine max); [11]) was 100%, the plant injury at 500 g/ha (soybean (Glycine max); [11]) was 100% and the plant injury at 62 g/ha (soybean (Glycine max); pre-emergence, Preemergence, scale 0 to 100, 0 no effect, 100 complete control, read-out: Plant response rating, Soybean) was 95%. The plant injury at 125 g/ha (soybean (Glycine max); [12]) was 95%, the plant injury at 250 g/ha (soybean (Glycine max); [12]) was 100% and the plant injury at 500 g/ha (soybean (Glycine max); [12]) was 100%. The pest or weed control at 62 g/ha [3, 13] was 80%, the pest or weed control at 125 g/ha [3, 13] was 85% and the pest or weed control at 250 g/ha [3, 14] was 90%. For the same compound, the pest or weed control at 500 g/ha [3, 14] was 90%, the pest or weed control at 62 g/ha ([3]; pre-emergence, Preemergence, scale 0 to 100, 0 no effect, 100 complete control, read-out: Plant response rating, Ragweed) was 90% and the pest or weed control at 125 g/ha [3, 15] was 100%. For the same compound, the pest or weed control at 250 g/ha [3, 15] was 100%, the pest or weed control at 500 g/ha [3, 15] was 100% and the pest or weed control at 62 g/ha ([4]; 62 g ai/ha, scale 0 to 100, 0 no effect, 100 complete control) was 100%. It also gave a pest or weed control at 125 g/ha ([4]; 125 g ai/ha, scale 0 to 100) of 100%, a pest or weed control at 250 g/ha ([4]; 250 g ai/ha, scale 0 to 100) of 100% and a pest or weed control at 500 g/ha ([4]; 500 g ai/ha, scale 0 to 100) of 100%. It also gave a pest or weed control at 62 g/ha [5, 16] of 60%, a pest or weed control at 125 g/ha [5, 16] of 60% and a pest or weed control at 250 g/ha [5, 17] of 60%. It also gave a pest or weed control at 500 g/ha [5, 17] of 65%, a pest or weed control at 62 g/ha ([5]; pre-emergence, Preemergence, scale 0 to 100, 0 no effect, 100 complete control, read-out: Plant response rating, Cupgrass, Woolly) of 40% and a pest or weed control at 125 g/ha [5, 18] of 95%. For the same compound, the pest or weed control at 250 g/ha [5, 18] was 95%, the pest or weed control at 500 g/ha [5, 18] was 95% and the pest or weed control at 62 g/ha [6, 19] was 55%. The pest or weed control at 125 g/ha [6, 19] was 60%, the pest or weed control at 250 g/ha [6, 20] was 90% and the pest or weed control at 500 g/ha [6, 20] was 95%. The pest or weed control at 62 g/ha ([6]; pre-emergence, Preemergence, scale 0 to 100, 0 no effect, 100 complete control, read-out: Plant response rating, Velvetleaf) was 90%, the pest or weed control at 125 g/ha [6, 21] was 95% and the pest or weed control at 250 g/ha [6, 21] was 100%. The pest or weed control at 500 g/ha [6, 21] was 100%.
